# Test results taken from patent publication US10174009B2, “Tricyclic sulphonamide compounds and methods of making and using same” (Zafgen, Inc., priority 2012, dated 2019).
# Target: T1, recombinant human MetAP2 (Homo sapiens, UniProt P50579)
# T1 construct: made in house; host or cells: Sf9 insect cells
# Assay: Inhibition of recombinant human MetAP2 activity (MAS substrate, amino acid oxidase/Amplex red fluorescence)
# Assay type: biochemical
# Conditions: manganese enzyme, 30 minutes at 25° C., pH 7.5, 0.75 mM MAS substrate, 1% DMSO
# Method: Compounds are tested for their capacity to inhibit recombinant human MetAP2 activity using the following assay.
# Human recombinant MetAP2 expressed in Sf9 cells followed by affinity purification and EDTA treatment to remove endogenous active site cation was dialysed against MnCl2 to produce the manganese enzyme used in the assay. The assay was carried out for 30 minutes at 25° C. in 50 mM HEPES buffer containing 100 mM NaCl, pH 7.5 the presence of 0.75 mM Methionine-Alanine-Serine (MAS) substrate and 50 μg/ml amino acid oxidase using a dilution of purified MetAP2 giving >3-fold signal:noise. Cleavage of the substrate by MetAP2 and oxidation of free methionine by amino acid oxidase was detected and quantified using fluorescence generated by Amplex red (10-acetyl-3,7-dihydroxyphenoxazine) in combination with horseradish peroxidase which detects H2O2 released during the oxidation step. The fluorescent signal was detected using a multiwell fluorimeter. Compounds were diluted in DMSO prior to addition to assay buffer, the final DMSO concentration in the assay being 1%.
# The IC50 is defined as the concentration at which a given compound achieves 50% inhibition of control. IC50 values are calculated using the XLfit software package (version 2.0.5).
# T1 sequence (P50579 whole entry): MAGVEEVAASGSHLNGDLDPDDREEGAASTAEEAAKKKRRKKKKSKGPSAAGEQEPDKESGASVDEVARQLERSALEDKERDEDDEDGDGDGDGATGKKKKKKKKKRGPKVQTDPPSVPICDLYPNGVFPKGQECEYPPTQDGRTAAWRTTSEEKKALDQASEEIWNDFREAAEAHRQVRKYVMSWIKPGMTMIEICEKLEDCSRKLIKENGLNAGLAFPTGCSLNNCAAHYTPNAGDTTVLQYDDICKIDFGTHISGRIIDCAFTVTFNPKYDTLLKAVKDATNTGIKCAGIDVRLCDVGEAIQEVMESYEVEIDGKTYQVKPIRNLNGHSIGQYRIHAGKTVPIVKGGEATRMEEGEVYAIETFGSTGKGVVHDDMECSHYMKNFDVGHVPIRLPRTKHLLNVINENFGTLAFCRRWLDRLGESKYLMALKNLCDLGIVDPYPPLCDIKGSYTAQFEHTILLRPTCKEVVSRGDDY
row,IC50 [nM],SMILES
1,> 50,"CCN(CC)CCCc1cc(F)ccc1S(=O)(=O)Nc1cc(F)c2c(c1C(=O)O)OCC1CC21 (racemic) [(1aRS,7bSR)-5-[2-(3-Diethylaminopropyl)-4-fluorobenzenesulfonylamino]-7-fluoro-1,1a,2,7b-tetrahydrocyclopropa[c]chromene-4-carboxylic acid]"
2,< 50,"CCN1CC[C@@H](Cc2cc(F)ccc2S(=O)(=O)Nc2cc(F)c3c(c2C(=O)O)OCC2CC32)C1 (mixture of isomers) [(1aRS,7bSR)-5-[2-((R)-1-Ethylpyrrolidin-3-ylmethyl)-4-fluorobenzene-sulfonylamino]-7-fluoro-1,1a,2,7b-tetrahydrocyclopropa[c]chromene-4-carboxylic acid]"
3,> 50,"CCN(CC)C/C=C\c1cc(F)ccc1S(=O)(=O)Nc1c(F)cc2c(c1C(=O)O)OCC1CC21 (racemic) [(1aRS,7bSR)-5-[2-((Z)-3-Diethylaminoprop-1-enyl)-4-fluorobenzene-sulfonylamino]-6-fluoro-1,1a,2,7b-tetrahydrocyclopropa[c]chromene-4-carboxylic acid]"
4,< 50,"CCN(CC)C/C=C\c1cc(F)ccc1S(=O)(=O)Nc1cc(F)c2c(c1C(=O)O)OCC1CC21 (racemic) [(1aRS,7bSR)-5-[2-((Z)-3-Diethylaminoprop-1-enyl)-4-fluorobenzenesulfonyl-amino]-7-fluoro-1,1a,2,7b-tetrahydrocyclopropa[c]chromene-4-carboxylic acid]"
